Read-outs that look alike come from different tables or passages of the source.
Key:
Assay type in all cases: cell-based
CXCR4 receptor = target: T1, CXCR4 receptor (Homo sapiens, UniProt P61073); experiment: Functional FLIPR assay (block of SDF-1 alpha induced [Ca2+]i change); conditions: HEK-293 cells, human CXCR4 BacMam and Gqi5 BacMam, read-out: Functional assay (pIC50) (converted)
T1 construct: expressed in transfected cells; host or cells: HEK-293 cells (stably expressing human macrophage scavenger receptor) transduced with human CXCR4 BacMam and Gqi5 BacMam
Method: Human embryonic kidney (HEK-293) cells were maintained and harvested as described above. Cells were plated in 96-well, black clear bottom, poly-lysine coated plates at a concentration of 40,000 cells per well in a final volume of 100 ul containing human CXCR4BacMam (MOI=25) and Gqi5 BacMam (MOI=12.5). The cells were incubated at 37° C., 5% CO2, 95% humidity for 24 h to allow for protein expression.
After the required incubation time the cells were washed once with 50 ul of fresh serum-free DMEM/F12 media containing probenicid. 50 ul of dye solution was then added to the cells (Calcium Plus Assay Kit Dye; Molecular Devices) was dissolved in 200 ml of the above probenicid/BSA containing media and incubated for 1 h. Cell plates were transferred to a Fluorometric Imaging Plate Reader (FLIPR). Upon addition the effect of the compounds on the change in [Ca^2+]i was examined to determine if the compounds were agonists or antagonists (ability to block SDF-1 alpha activity) at the CXCR4 receptor. IC50 values are determined and pKb values are calculated using the Leff and Dougall equation: KB═IC50/((2+([agonist]/EC50̂b)̂1/b−1) Where IC50 is that defined by the antagonist concentration-response curve [agonist)] is the EC80 concentration of agonist used EC50 is that defined by the agonist concentration-response curve b is the slope of the agonist concentration-response curve.

[1] = system: HIV-1 gp160 (HXB2 strain) mediated cell/cell fusion; experiment: Cell/cell fusion assay (HOS hCXCR4/hCCR5/hCD4/pHIV-LTR-luciferase cells with HEK-293 cells expressing HIV-1 tat, rev, gp160), luciferase readout; conditions: Homo sapiens, HEK293, 24 h, read-out: Fusion assay (pIC50) (converted)
Text: The complete coding sequences of HIV-1 tat (GenBank Accession No. X07861) and rev (GenBank Accession No. M34378) were cloned into pcDNA3.1 expression vectors containing G418 and hygromycin resistance genes, respectively. The complete coding sequence of the HIV-1 (HXB2 strain) gp160 envelope gene (nucleotide bases 6225-8795 of GenBank Accession No. K03455) was cloned into plasmid pCRII-TOPO. The three HIV genes were additionally inserted into the baculovirus shuttle vector, pFastBacMam1, under the transcriptional control of the CMV promoter. A construction of the pHIV-1 LTR containing mutated NFkB sequences linked to the luciferase reporter gene was prepared by digesting pcDNA3.1, containing the G418 resistance gene, with Nru I and Bam HI to remove the CMV promoter. LTR-luc was then cloned into the Nru I/Bam HI sites of the plasmid vector. Plasmid preparations were performed after the plasmids were amplified in Escherichia coli strain DH5-alpha. The fidelity of the inserted sequences was confirmed by double-strand nucleotide sequencing using an ABI Prism Model 377 automated sequencer.
Recombinant BacMam baculoviruses were constructed from pFastBacMam shuttle plasmids by using the bacterial cell-based Bac-to-Bac system. Viruses were propagated in Sf9 (Spodoptera frugiperda) cells cultured in Hink's TNM-FH Insect media supplemented with 10% (v/v) fetal bovine serum and 0.1% (v/v) pluronic F-68 according to established protocols.
Human osteosarcoma (HOS) cells that naturally express human CXCR4 were transfected with human CCR5, human CD4 and the pHIV-LTR-luciferase plasmid using FuGENE 6 transfection reagent. Single cells were isolated and grown under selection condition in order to generate a stable HOS (hCXCR4/hCCR5/hCD4/pHIV-LTR-luciferase) clonal cell line. The cells were maintained in Dulbeccos modified Eagles media supplemented with 10% fetal calf serum (FCS), G418 (400 ug/ml), puromycin (1 ug/ml), mycophenolic acid (40 ug/ml), xanthine (250 ug/ml) and hypoxanthine (13.5 ug/ml) to maintain a selection pressure for cells expressing the LTR-luciferase, hCCR5 and hCD4, respectively. Human embryonic kidney (HEK-293) cells stably transfected to express the human macrophage scavenging receptor (Class A, type 1; GenBank Accession No. D90187), were maintained in DMEM/F-12 media (1:1) supplemented with 10% FCS and 1.5 ug/ml puromycin. The expression of this receptor by the HEK-293 cells enhances their ability to stick to tissue culture treated plasticware.
HEK-293 cells were harvested using enzyme-free cell dissociation buffer. The cells were resuspended in DMEM/F-12 media supplemented with 10% FCS and 1.5 ug/ml and counted. Tranductions were performed by direct addition of BacMam baculovirus containing insect cell media to cells. The cells were simultaneously transduced with BacMam baculovirus expressing HIV-1 tat, HIV-1 rev and HIV-1 gp160 (from the HXB2 HIV strain). Routinely an MOI of 10 of each virus was added to the media containing the cells. 2 mM butyric acid was also added to the cells at this stage to increase protein expression in transduced cells. The cells were subsequently mixed and seeded into a flask at 30 million cells per T225. The cells were incubated at 37° C., 5% CO2, 95% humidity for 24 h to allow for protein expression.
HEK and HOS cells were harvested in DMEM/F-12 media containing 2% FCS and DMEM media containing 2% FCS, respectively, with no selection agents added. Compounds were plated as 1 ul spots in 100% DMSO on a 96-well CulturPlate plates. HOS cells (50 ul) were added first to the wells, followed immediately by the HEK cells (50 ul). The final concentration of each cell type was 20,000 cells per well. Following these additions, the cells were returned to a tissue culture incubator (37° C.; 5% CO2/95% air) for an additional 24 h.
Following the 24 h incubation, total cellular luciferase activity was measured using the LucLite Plus assay kit (Packard, Meridien, Conn.). […]

[2] = Compound cytotoxicity in HOS cells in the absence of virus (CellTiter-Glo); conditions: human, no virus, read-out: Cytotox (pIC50) (converted)
Method: Compounds were profiled against two HIV-1 viruses, the M-tropic (CCR5 utilizing) Ba-L strain and the T-tropic (CXCR4 utilizing) IIIB strain. Both viruses were propagated in human peripheral blood lymphocytes. Compounds were tested for there ability to block infection of the HOS cell line (expressing hCXCR4/hCCR5/hCD4/pHIV-LTR-luciferase) by either HIV-1 Ba-L or HIV-1 IIIB. Compound cytotoxicity was also examined in the absence of virus addition.
HOS cells (expressing hCXCR4/hCCR5/hCD4/pHIV-LTR-luciferase) were harvested and diluted in Dulbeccos modified Eagles media supplemented with 2% FCS and non-essential amino acid to a concentration of 60,000 cells/ml. The cells were plated into 96-well plates (100 ul per well) and the plates were placed in a tissue culture incubator (37° C.; 5% CO2/95% air) for a period of 24 h.
Subsequently, 50 ul of the desired drug solution (4 times the final concentration) was added to each well and the plates were returned to the tissue culture incubator (37° C.; 5% CO2/95% air) for 1 h. Following this incubation 50 ul of diluted virus was added to each well (approximately 2 million RLU per well of virus). The plates were returned to the tissue culture incubator (37° C.; 5% CO2/95% air) and were incubated for a further 96 h.
Following this incubation the endpoint for the virally infected cultures was quantified following addition of Steady-Glo Luciferase assay system reagent (Promega, Madison, Wis.). Cell viability or non-infected cultures was measured using a CellTiter-Glo luminescent cell viability assay system (Promega, Madison, Wis.). All luminescent readouts are performed on a Topcount luminescence detector (Packard, Meridien, Conn.).

HIV-1 IIIB = experiment: HOS HIV-1 infectivity assay
Outline: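 Blockade of infection is measured in HOS cells carrying hCD4, hCXCR4, hCCR5 and an HIV-LTR-driven luciferase, using virus grown in human peripheral blood lymphocytes. After 96 h, Steady-Glo luminescence reports infection, while CellTiter-Glo gauges cytotoxicity without virus.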

[3] = Human immunodeficiency virus 1, IIIB, as determined by the infectivity assay, strain not stated in Table 2, read-out: Activity Level
[4] = Human immunodeficiency virus 1, T-tropic (CXCR4 utilizing) IIIB strain, HOS cells, 96 h, read-out: HOS (3B)

T1 sequence (P61073 whole entry): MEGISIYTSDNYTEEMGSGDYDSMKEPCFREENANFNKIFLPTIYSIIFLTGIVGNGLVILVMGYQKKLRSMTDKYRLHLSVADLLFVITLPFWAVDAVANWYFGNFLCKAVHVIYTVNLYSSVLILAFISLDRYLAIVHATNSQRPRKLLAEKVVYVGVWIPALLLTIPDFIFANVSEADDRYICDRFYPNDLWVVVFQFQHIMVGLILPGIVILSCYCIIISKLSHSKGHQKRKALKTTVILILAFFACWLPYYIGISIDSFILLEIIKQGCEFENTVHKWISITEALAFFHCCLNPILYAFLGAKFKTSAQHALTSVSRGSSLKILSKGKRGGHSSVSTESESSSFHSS

SMILES | IC50 (CXCR4 receptor) [nM] | IC50 [1] [nM] | IC50 at 96 h [2] [nM] | IC50 (HIV-1 IIIB; [3]) [µM] | IC50 (HIV-1 IIIB; [4]) [µM] | IC50 (HIV-1 IIIB; Human immunodeficiency virus 1, IIIB, HOS, 96 h, read-out: HOS (3B) (uM)) [µM] | IC50 (HIV-1 IIIB; Human immunodeficiency virus 1, IIIB, read-out: Activity Level) [µM]
CCN(Cc1nc2ccccc2n1CCCN)C1CCCc2cccnc21 (centres unmarked) [Example 20, N-{[1-(3-Aminopropyl)-1H-benzimidazol-2-yl]methyl}-N-ethyl-5,6,7,8-tetrahydro-8-quinolinamine] | 28.2 | 56.2 | > 100000 | < 0.1 | 0.021 | – | –
CN1CCOC(Cn2c(CN(C)C3CCCc4cccnc43)nc3ccccc32)C1 (centres unmarked) [Example 25, N-Methyl-N-({1-[(4-methyl-2-morpholinyl)methyl]-1H-benzimidazol-2-yl}methyl)-5,6,7,8-tetrahydro-8-quinolinamine] | 29.5 | 38 | > 100000 | 0.1 to 0.5 | 0.185 | – | –
CN(Cc1nc2ccccc2n1CCN)C1CCCc2cccnc21 (centres unmarked) [Example 18, N-{[1-(2-Aminoethyl)-1H-benzimidazol-2-yl]methyl}-N-methyl-5,6,7,8-tetrahydro-8-quinolinamine] | 166 | 316 | > 100000 | – | – | – | –
CN(C)C/C=C\Cn1c(CN(C)C2CCCc3cccnc32)nc2ccccc21 (centres unmarked) [Example 24, N-({1-[(2Z)-4-(Dimethylamino)-2-buten-1-yl]-1H-benzimidazol-2-yl}methyl)-N-methyl-5,6,7,8-tetrahydro-8-quinolinamine] | 15.5 | 20.4 | > 100000 | < 0.1 | 0.025 | – | –
CN(Cc1nc2ccccc2n1Cc1cccnc1)C1CCCc2cccnc21 (centres unmarked) [Example 3, N-Methyl-N-{[1-(3-pyridinylmethyl)-1H-benzimidazol-2-yl]methyl}-5,6,7,8-tetrahydro-8-quinolinamine] | 398 | 1780 | > 100000 | 0.5 to 10 | 0.574 | – | –
CN1CCCC(Cn2c(CN(C)C3CCCc4cccnc43)nc3ccccc32)C1 (centres unmarked) [Example 7, N-Methyl-N-({1-[(1-methyl-3-piperidinyl)methyl]-1H-benzimidazol-2-yl}methyl)-5,6,7,8-tetrahydro-8-quinolinamine] | 8.13 | 20.9 | > 100000 | < 0.1 | 0.019 | – | –
CN(Cc1nc2ccccc2n1CCCCN)C1CCCc2cccnc21 (centres unmarked) [Example 13, N-{[1-(4-Aminobutyl)-1H-benzimidazol-2-yl]methyl}-N-methyl-5,6,7,8-tetrahydro-8-quinolinamine] | 302 | 126 | > 100000 | 0.1 to 0.5 | 0.131 | – | –
CN1CCC(n2c(CN(C)C3CCCc4cccnc43)nc3ccccc32)CC1 (centres unmarked) [Example 11i, N-Methyl-N-{[1-(1-methyl-4-piperidinyl)-1H-benzimidazol-2-yl]methyl}-5,6,7,8-tetrahydro-8-quinolinamine] | 37.2 | 79.4 | > 100000 | – | – | 0.082 | < 0.1
NCCCn1c(CNC2CCCc3cccnc32)nc2ccccc21 (centres unmarked) [Example 19, N-{[1-(3-Aminopropyl)-1H-benzimidazol-2-yl]methyl}-5,6,7,8-tetrahydro-8-quinolinamine] | 234 | 513 | > 100000 | < 0.1 | 0.09 | – | –
CC(C)CCN(Cc1nc2ccccc2n1CCCN)C1CCCc2cccnc21 (centres unmarked) [Example 22, N-{[1-(3-Aminopropyl)-1H-benzimidazol-2-yl]methyl}-N-(3-methylbutyl)-5,6,7,8-tetrahydro-8-quinolinamine] | 56.2 | 158 | > 100000 | 0.1 to 0.5 | 0.113 | – | –
CN(C)CC(C)(C)Cn1c(CN(C)C2CCCc3cccnc32)nc2ccccc21 (centres unmarked) [Example 67, N-({1-[3-(Dimethylamino)-2,2-dimethylpropyl]-1H-benzimidazol-2-yl}methyl)-N-methyl-5,6,7,8-tetrahydro-8-quinolinamine] | – | – | – | < 0.1 | – | – | –
CC(C)CCN1CCC[C@@H](Cn2c(CN(C)[C@H]3CCCc4cccnc43)nc3ccccc32)C1 [Example 80, (8S)—N-Methyl-N-[(1-{[(3R)-1-(3-methylbutyl)-3-piperidinyl]methyl}-1H-benzimidazol-2-yl)methyl]-5,6,7,8-tetrahydro-8-quinolinamine] | – | – | – | < 0.1 | – | – | –

Reference: patent publication US20080096861A1, “Chemical Compounds” (SMITHKLINE BEECHAM CORPORATION, priority 2004, published 2008)
